Results from patent US11744860B2, “Technology for efficient activation of NKT cells” (RIKEN, priority 2016, dated 2023).

Key:
Format in all cases: cell-based
human NKT cell line [1] = test: NKT cell activating action (IFN-γ production), co-culture of ligand-pulsed cells with human NKT cell line, ELISA; details: ligand 100 ng/mL; for IFN-γ production from NKT cells induced by ligand-pulsed CD14 positive cells: 48 hr pulse, 1×10^5 pulsed cells with 1×10^5 human NKT cells, 48 hr
From the text: For preparation of the cells obtained by culturing human CD14 positive cells (monocytes) immediately after separation using anti-CD14 antibody and human CD14 negative cells or human Elu-CD14 positive cells (monocytes) for 2 days with GM-CSF and NKT cell ligand RK-163 (respectively called “RK-163-pulsed human CD14 positive cell”, “RK-163-pulsed human CD14 negative cell”, “RK-163-pulsed human Elu-CD14 positive cell”), and the dendritic cells induced to differentiate in 2)-(2) by culturing for 6 days with addition of GM-CSF and IL-4 (called “RK-163-pulsed human dendritic cell”), RK-163 (bulk powder was dissolved in PBS added with DMSO and 0.5% Tween 20) was added to each cell to a final concentration of 100 ng/mL, and the cells were cultured at 37° C., 5% CO2 for 48 hr to produce “RK-163-pulsed cells”. After culturing, the recovered cells were centrifugation washed twice, and the number of viable cells after Trypan Blue staining was calculated by TC20™ Automated Cell Counter. RK-163-pulsed cells and human NKT cell line were respectively suspended in 10% fetal calf serum (Sigma, Lot No. 114K525)-added RMPI-1640 (Invitrogen) to 1×10^6/mL, each cell suspension was seeded at a cell concentration of 1×10^5/0.1 mL/well in a 96-well round-bottomed culture plate, and the cells were cultured at 37° C., 5% CO2 for 48 hr. After culturing, 200 μL of supernatant was recovered, and the produced and secreted IFN-γ was measured using a commercially available ELISA kit (BD Biosciences).
CD14 positive cells immediately after separation of anti-CD14 antibody-bound microbeads were separated, pulse-cultured in a medium containing NKT ligand RK-163 or other NKT cell ligand α-GalCer at 100 ng/mL and GM-CSF (53.3 ng/mL) for various times (0, 16, 48, 64 and 72 hr), and an influence on the activity of NKT cells to induce IFN-γ production was compared. As a result, IFN-γ production inducing activity was found from 16 hr after pulsing and high activity was found 48-72 hr later (FIG. 4, left). The recovery rate and survival rate at that time were highest at 48 hrs (FIG. 4, right). […]
Using RCAI-85 (100 ng/mL), RCAI-137 (100 ng/mL) instead of RK-163, CD14 positive cells (monocytes) isolated from human peripheral blood were pulsed for 48 hr to give each ligand-pulsed CD14 positive cell. 1×10^5 RK-163-pulsed CD14 positive cells or other ligand-pulsed CD14 positive cells were seeded in a 96 well round-bottomed plate, and cocultured with 1×10^5 human NKT cells for 48 hr in a 10% FBS-containing complete RPMI-1640 medium, and the concentration of IFN-γ in the culture medium was measured.

[2] = tested on: NCI H460 cells (human lung cancer cell line); test: Cytotoxic activity of NKT cells stimulated with pulsed cells against NCI H460 cells
From the text: Human NKT cells were stimulated by culturing for 8-10 days with the “RK-163-pulsed human CD14 positive cell” or “RK-163-pulsed human dendritic cell” produced in the same manner as above in a mixed medium of AIM-V (50%) and RPMI-1640 (45%) and containing FCS (5%) (lot suitable for proliferation of iPS cells), sodium pyruvate, NEAA, 2-ME, IL-2 (100 U/mL) (Imunace). The mixing ratio of NKT cells and RK-163-pulsed CD14 positive cells or RK-163-pulsed dendritic cells was set to 1:1.5-5. The obtained human NKT cells were cultured for 4 hr together with NCI H460 cells (human lung cancer cell line) in an FBS (10%)-containing complete RPMI-1640 medium on a 96 well round-bottomed plate and the cytotoxic activity against NCI H460 cells was examined. The number of the target cells (NCI H460 cells) was set to 1×10^4 cells/well and the effector:target ratio was set to 3:1 and 10:1.

human NKT cell line [3] = test: NKT cell activating action (IFN-γ production) of RK-163-pulsed human CD14 positive cell lines; details: U937 cells, RK-163 100 ng/mL, presence or absence of GM-CSF, 2-48 hr
Procedure: Human CD14 positive cell line THP-1 cells and U937 cells were suspended in RPMI1640/10% FBS culture medium to 1-3×10^6 cells/ml, and seeded in a 24-well culture plate (Falcon) at a cell density of 1 mL/well. Simultaneously, RK-163 (bulk powder was dissolved in PBS added with DMSO and 0.5% Tween 20) was added to a final concentration 100 ng/mL, […] to give “RK-163-pulsed human CD14 positive cell line”.
iPS-CD14 positive cells were cultured for 8-48 hr in the presence of RK-163 in the same manner as for THP-1 and U937 to give “RK-163-pulsed human iPS-CD14 positive cell line”.
[…] After culturing, the recovered cells were washed twice by centrifugation, and the number of viable cells after Trypan Blue staining was calculated by TC20™ Automated Cell Counter. RK-163-pulsed cells and human NKT cell line were respectively suspended in 10% fetal bovine serum (Sigma, Lot No. 114K525)-added RMPI-1640 (Invitrogen) to 1×10^6/mL, each cell suspension was seeded at a cell concentration of 1×10^5/0.1 mL/well in a 96-well round-bottomed culture plate, and the cells were cultured at 37° C., 5% CO2 for 48 hr. After culturing, 200 μL of supernatant was recovered, and the produced and secreted IFN-γ was measured using a commercially available ELISA kit (BD Biosciences). […]

SMILES | IFN-γ production from NKT cells induced by ligand-pulsed CD14 positive cells (human NKT cell line [1]) | pulse time with high IFN-γ production inducing activity (human NKT cell line [1]; CD14 positive cells, GM-CSF 53.3 ng/mL) | pulse time from which IFN-γ production inducing activity was found (human NKT cell line [1]; CD14 positive cells, GM-CSF 53.3 ng/mL, times 0, 16, 48, 64, 72 hr) | cytotoxic activity induced on human NKT cells as compared to α-GalCer [2] | pulse time from which IFN-γ production inducing activity was found (human NKT cell line [3])
CCCCCCCCCCCCCCCCCCCCCCCCCC(=O)N[C@@H](CO[C@H]1O[C@H](COCC)[C@H](O)[C@H](O)[C@H]1O)[C@H](O)[C@H](O)CCCCCCCCCCCCCC [RCAI-85] | strongly induce | – | – | – | –
CCCCCCCCCCCCCCCCCCCCCCCCCC(=O)N[C@@H](CO[C@H]1O[C@H](COC(=O)NC)[C@H](O)[C@H](O)[C@H]1O)[C@H](O)[C@H](O)CCCCCCCCCCCCCC [RK-163] | – | 48 to 72 h | ≥ 16 h | stronger | ≥ 2 h
CCCCCCCCCCCCCCCCCCCCCCCCCC(=O)N[C@@H](CO[C@H]1O[C@H](COC(=O)NO)[C@H](O)[C@H](O)[C@H]1O)[C@H](O)[C@H](O)CCCCCCCCCCCCCC [RCAI-137] | strongly induce | – | – | – | –
